In the assay the test system is CCL2. Briefly: ELISA of CCL2 levels in the supernatant of keratinocyte cultures treated with EGFR inhibitor PD168393 and/or HDAC inhibitors. The format is cell-based. To be noted: then PD168393 24 hours (FIG. 1). The text has this: Results are expressed as the mean of three independent experiments ±SD.
(In general: In an ELISA, binding on a coated surface is turned into a signal by an enzyme label.)

On to `CC(/C=C/C(=O)NO)=C\[C@@H](C)C(=O)c1ccc(N(C)C)cc1` [trichostatin A], for which, where the note is “keratinocytes pre-treated with HDAC inhibitor 5 nM for 2 hours”, the “effect on PD168393-induced up-regulation of CCL2 levels” value is listed as “suppressed”.

As for `CCCC(CCC)C(=O)O` [valproic acid], where the note is “keratinocytes pre-treated with HDAC inhibitor for 2 hours”, the “effect on PD168393-induced up-regulation of CCL2 levels” value is “suppressed”.

The values above are taken from patent US20120114745A1, “METHOD FOR TREATING OR AMELIORATING MUCOCUTANEOUS OR OCULAR TOXICITIES” (priority 2009, published 2012).
